Results taken from US12077503B2, “Substituted cyclic amides and their use as herbicides” (FMC CORPORATION, priority 2015, dated 2024).

Columns and labels:
Format in all cases: in vivo
[1] = tested on: pigweed (Amaranthus retroflexus); test: Test A preemergence; conditions: Amaranthus retroflexus, pre-emergence, 240 h, 0 to 100 scale where 0 is no effect and 100 is complete control, read-out: Pigweed plant response rating
[2] = tested on: ryegrass, Italian (Italian ryegrass, Lolium multiflorum); test: Test A preemergence; conditions: Lolium multiflorum, pre-emergence, 240 h, 0 to 100 scale where 0 is no effect and 100 is complete control, read-out: Ryegrass, Italian plant response rating
Outline: (§1)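 Preemergence soil spray on seeded pots or post-emergence spray on 1–2 leaf plants, in loam–sand blend. Greenhouse ~10 d. Visual rating 0–100 against untreated plants.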

Kochia (Kochia scoparia) [3] = test: Test A preemergence; conditions: Bassia scoparia, pre-emergence, 240 h, 0 to 100 scale where 0 is no effect and 100 is complete control, read-out: Kochia plant response rating
Outline: as §1

[4] = tested on: ragweed (common ragweed, Ambrosia elatior); test: Test A preemergence; conditions: Ambrosia artemisiifolia, pre-emergence, 240 h, 0 to 100 scale where 0 is no effect and 100 is complete control, read-out: Ragweed plant response rating
Outline: as §1

[5] = tested on: barnyardgrass (Echinochloa crus-galli); test: Test A preemergence; conditions: Echinochloa crus-galli, pre-emergence, 240 h, 0 to 100 scale where 0 is no effect and 100 is complete control, read-out: Barnyardgrass plant response rating
Outline: as §1

[6] = tested on: giant foxtail (Setaria faberii); test: Test A preemergence; conditions: Setaria faberi, pre-emergence, 240 h, 0 to 100 scale where 0 is no effect and 100 is complete control, read-out: Foxtail, Giant plant response rating
Outline: as §1

[7] = tested on: ducksalad (Heteranthera limosa); test: Test B flooded paddy test; conditions: Heteranthera limosa, 250 g ai/ha, Flood; 0 to 100 scale where 0 is no effect and 100 is complete control; read-out: Ducksalad plant response rating
Outline: (§2)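 Response scored visually against untreated controls, 0 = no effect and 100 = complete control, 13–15 d after treatment in the greenhouse. Compounds added to paddy water held 3 cm above soil surface. Treatment given at 2-leaf stage.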

[8] = tested on: barnyardgrass (Echinochloa crus-galli); test: Test B flooded paddy test; conditions: Echinochloa crus-galli, 250 g ai/ha, Flood; 0 to 100 scale where 0 is no effect and 100 is complete control; read-out: Barnyardgrass plant response rating
Outline: as §2

rice (Oryra sativa) = test: Test B flooded paddy test; conditions: Oryza sativa, 250 g ai/ha, Flood; 0 to 100 scale where 0 is no effect and 100 is complete control; read-out: Rice plant response rating
Outline: as §2

[9] = tested on: sedge, umbrella (small-flower umbrella sedge, Cyperus difformis); test: Test B flooded paddy test; conditions: Cyperus difformis, 250 g ai/ha, Flood; 0 to 100 scale where 0 is no effect and 100 is complete control; read-out: Sedge, Umbrella plant response rating
Outline: as §2

[10] = tested on: pigweed (Amaranthus retroflexus); test: Test A postemergence; conditions: Amaranthus retroflexus, post-emergence, 240 h
Outline: as §1

[11] = tested on: Galium (catchweed bedstraw, Galium aparine); test: Test A postemergence; conditions: Galium, post-emergence, 240 h
Outline: as §1

[12] = tested on: ryegrass, Italian (Italian ryegrass, Lolium multiflorum); test: Test A postemergence; conditions: Lolium multiflorum, post-emergence, 240 h
Outline: as §1

Kochia (Kochia scoparia) [13] = test: Test A postemergence; conditions: Bassia scoparia, post-emergence, 240 h
Outline: as §1

[14] = tested on: ragweed (common ragweed, Ambrosia elatior); test: Test A postemergence; conditions: Ambrosia artemisiifolia, post-emergence, 240 h
Outline: as §1

[15] = tested on: barnyardgrass (Echinochloa crus-galli); test: Test A postemergence; conditions: Echinochloa crus-galli, post-emergence, 240 h
Outline: as §1

[16] = tested on: giant foxtail (Setaria faberii); test: Test A postemergence; conditions: Setaria faberi, post-emergence, 240 h
Outline: as §1

[17] = tested on: blackgrass (Alopecurus myosuroides); test: Test A postemergence; conditions: Alopecurus myosuroides, post-emergence, 240 h
Outline: as §1

corn (Zea mays) = test: Test A postemergence; conditions: Zea mays, post-emergence, 240 h
Outline: as §1

[18] = tested on: wheat (Triticum aestivum); test: Test A postemergence; conditions: Triticum aestivum, post-emergence, 240 h
Outline: as §1

[19] = 125 g ai/ha, preemergence, approx. 10 d

`O=C1NC[C@H](c2csc3c2CCC3)[C@H]1C(=O)Nc1cccc(F)c1F` [Compound 1164] showed a pest or weed control at 31 g/ha ([1]; 31 g ai/ha, Preemergence) of 0%, a pest or weed control at 125 g/ha [1, 19] of 0% and a pest or weed control at 31 g/ha ([2]; 31 g ai/ha, Preemergence) of 0%. The pest or weed control at 125 g/ha [2, 19] was 0%, the pest or weed control at 31 g/ha (Kochia (Kochia scoparia) [3]; 31 g ai/ha, Preemergence) was 0% and the pest or weed control at 125 g/ha (Kochia (Kochia scoparia) [3]; [19]) was 20%. The pest or weed control at 31 g/ha ([4]; 31 g ai/ha, Preemergence) was 0%, the pest or weed control at 125 g/ha [4, 19] was 0% and the pest or weed control at 31 g/ha ([5]; 31 g ai/ha, Preemergence) was 60%. It also gave a pest or weed control at 125 g/ha [5, 19] of 80%, a pest or weed control at 31 g/ha ([6]; 31 g ai/ha, Preemergence) of 30% and a pest or weed control at 125 g/ha [6, 19] of 30%. For the same compound, the pest or weed control at 250 g/ha [7] was 95%, the pest or weed control at 250 g/ha [8] was 40% and the pest or weed control at 250 g/ha (rice (Oryra sativa)) was 0%. The pest or weed control at 250 g/ha [9] was 0%, the pest or weed control at 125 g/ha ([10]; 125 g ai/ha, postemergence, visual injury vs untreated controls after approx. 10 d, 0 = no effect, 100 = complete control, read-out: Pigweed plant response rating (0 to 100 scale)) was 0% and the pest or weed control at 31 g/ha ([10]; Postemergence, 31 g ai/ha, visual injury after approx. 10 d, 0 to 100 scale, 0 no effect, 100 complete control, read-out: Plant response rating, Pigweed) was 0%. The pest or weed control at 125 g/ha ([11]; 125 g ai/ha, postemergence, visual injury vs untreated controls after approx. 10 d, 0 = no effect, 100 = complete control, read-out: Galium plant response rating (0 to 100 scale)) was 30%, the pest or weed control at 31 g/ha ([11]; Postemergence, 31 g ai/ha, visual injury after approx. 10 d, 0 to 100 scale, 0 no effect, 100 complete control, read-out: Plant response rating, Galium) was 0% and the pest or weed control at 125 g/ha ([12]; 125 g ai/ha, postemergence, visual injury vs untreated controls after approx. 10 d, 0 = no effect, 100 = complete control, read-out: Ryegrass, Italian plant response rating (0 to 100 scale)) was 0%. The pest or weed control at 31 g/ha ([12]; Postemergence, 31 g ai/ha, visual injury after approx. 10 d, 0 to 100 scale, 0 no effect, 100 complete control, read-out: Plant response rating, Ryegrass, Italian) was 0%, the pest or weed control at 125 g/ha (Kochia (Kochia scoparia) [13]; 125 g ai/ha, postemergence, visual injury vs untreated controls after approx. 10 d, 0 = no effect, 100 = complete control, read-out: Kochia plant response rating (0 to 100 scale)) was 0% and the pest or weed control at 31 g/ha (Kochia (Kochia scoparia) [13]; Postemergence, 31 g ai/ha, visual injury after approx. 10 d, 0 to 100 scale, 0 no effect, 100 complete control, read-out: Plant response rating, Kochia) was 0%. The pest or weed control at 125 g/ha ([14]; 125 g ai/ha, postemergence, visual injury vs untreated controls after approx. 10 d, 0 = no effect, 100 = complete control, read-out: Ragweed plant response rating (0 to 100 scale)) was 0%, the pest or weed control at 31 g/ha ([14]; Postemergence, 31 g ai/ha, visual injury after approx. 10 d, 0 to 100 scale, 0 no effect, 100 complete control, read-out: Plant response rating, Ragweed) was 0% and the pest or weed control at 125 g/ha ([15]; 125 g ai/ha, postemergence, visual injury vs untreated controls after approx. 10 d, 0 = no effect, 100 = complete control, read-out: Barnyardgrass plant response rating (0 to 100 scale)) was 80%. The pest or weed control at 31 g/ha ([15]; Postemergence, 31 g ai/ha, visual injury after approx. 10 d, 0 to 100 scale, 0 no effect, 100 complete control, read-out: Plant response rating, Barnyardgrass) was 30%, the pest or weed control at 125 g/ha ([16]; 125 g ai/ha, postemergence, visual injury vs untreated controls after approx. 10 d, 0 = no effect, 100 = complete control, read-out: Foxtail, Giant plant response rating (0 to 100 scale)) was 0% and the pest or weed control at 31 g/ha ([16]; Postemergence, 31 g ai/ha, visual injury after approx. 10 d, 0 to 100 scale, 0 no effect, 100 complete control, read-out: Plant response rating, Foxtail, Giant) was 0%. For the same compound, the pest or weed control at 125 g/ha ([17]; 125 g ai/ha, postemergence, visual injury vs untreated controls after approx. 10 d, 0 = no effect, 100 = complete control, read-out: Blackgrass plant response rating (0 to 100 scale)) was 0%, the pest or weed control at 31 g/ha ([17]; Postemergence, 31 g ai/ha, visual injury after approx. 10 d, 0 to 100 scale, 0 no effect, 100 complete control, read-out: Plant response rating, Blackgrass) was 0% and the plant injury at 125 g/ha (corn (Zea mays); 125 g ai/ha, postemergence, visual injury vs untreated controls after approx. 10 d, 0 = no effect, 100 = complete control, read-out: Corn plant response rating (0 to 100 scale)) was 0%. The Corn plant response rating (crop injury, 0 = no effect, 100 = complete kill) at 31 g/ha (corn (Zea mays); Postemergence, 31 g ai/ha, visual injury after approx. 10 d, 0 to 100 scale, 0 no effect, 100 complete control) was 0%, the plant injury at 125 g/ha ([18]; 125 g ai/ha, postemergence, visual injury vs untreated controls after approx. 10 d, 0 = no effect, 100 = complete control, read-out: Wheat plant response rating (0 to 100 scale)) was 0% and the plant injury at 31 g/ha ([18]; Postemergence, 31 g ai/ha, visual injury after approx. 10 d, 0 to 100 scale, 0 no effect, 100 complete control, read-out: Plant response rating, Wheat) was 0%.
